# Data from US9018173B2, “Materials and methods for suppressing inflammatory and neuropathic pain” (Indiana University Research and Technology Corp., priority 2010, dated 2015).
# “Also recorded” adds a separate entry of the source. Residues, ends and D or L forms follow the SMILES beside them.
# Experiments:
# motor coordination = experiment: Rotarod test for motor coordination; format: in vivo, mouse (C57BL6); details: 10 and 50 mg/kg i.p.
# Protocol: Rotarod test for motor coordination. The rotarod test was performed as described previously (Onyszchuk, G., He, Y. Y., Berman, N. E., & Brooks, W. M. Detrimental effects of aging on outcome from traumatic brain injury: a behavioral, magnetic resonance imaging, and histological study in mice. J. Neurotrauma. 25, 153-171 (2008)) with slight modifications. Briefly, the latency to fall off a rotating rod was measured at two different rotational accelerations (fast and slow). The rotarod device (IITC Life Science, Inc., Woodland Hills, Calif., USA) consists of a metal rod with hard plastic drums (diameter: 1.25 in) in each of five individual lanes. For slow acceleration, the device was accelerated from 1 rpm to 18 rpm over 90 seconds, with each trial lasting a maximum of 120 seconds. For fast acceleration, the device was accelerated from 1 rpm to 30 rpm over 90 seconds, with each trial lasting a maximum of 120 seconds. The trials ended when the mouse (C57BL6) either fell off the rod or clung to the rod as it made one complete rotation. The rotarod tests were performed before the injection to score the baseline latencies for each animal. These trials also served to acclimate the animals to the test paradigm. […] Performance was evaluated 3 days following injection.
# [1] = system: anxiety-associated behavior; experiment: Light-Dark Box test (LDBT); format: in vivo, C57BL6 mice; details: for Light-Dark Box: Dark box latency to exit / Light-Dark Box: Light box entries: C57BL6 mice, 1 h after injection, 5 min test
# Protocol: The light-dark box test and the elevated plus maze were used as measures of anxiety-associated behaviors. The tail suspension test was performed to evaluate despair- and depression-associated behavior. Anxiety-behavior testing Anxiety occurs when there is conflict between risk and reward. The Light-Dark Box test (LDBT) and the elevated plus maze (EPM) are accepted tests of anxiety-associated behavior that assess the conflict mice have against hiding in enclosed dark areas (i.e., dark box or closed arm) and their tendency to explore novel environments (i.e., white box or open arm). Lalonde, R. & Strazielle, C. […] J. Neurosci. Methods. 171, 48-52 (2008). These tests are also sensitive to anxiolytic drug treatments. Light-Dark Box test as a measure of anxiety-associated behavior. For the light-dark box test (LDBT), there were two adjoined light and dark compartments boxes with a 7 cm square opening to allow mice to move between them. The black box was covered (20 cm×40 cm×30 cm height) and the white box (20 cm×40 cm×30 cm height) was open and illuminated (40 W). Each mouse was placed into the white compartment and the white compartment was video recorded for later analyses using ANY-maze software (version 4.75, Stoelting, Wood Dale, Ill.) which is a video tracking system designed to automate testing in behavioral experiments. The main parameters were duration of time spent in the light box; the latency to enter the dark box; and the number of transitions between the light and dark box.
# [2] = system: anxiety-associated behavior; experiment: Elevated plus maze (EPM); format: in vivo, C57BL6 mice; details: for Elevated Plus Maze: Closed arm entries / Elevated Plus Maze: Closed arm latency to enter / Elevated Plus Maze: Closed arm latency to exit / Elevated Plus Maze: Open arm entries / Elevated Plus Maze: Open arm latency to enter / Elevated Plus Maze: Open arm latency to exit: C57BL6 mice, 1 h after injection, 5 min test
# [3] = target: T1, CRMP-2-CaV2.2 interaction (Rattus norvegicus, UniProt Q02294); experiment: Immunoprecipitation of CRMP-2/CaV2.2 in the presence of peptides; format: binding; details: spinal cord lysates or rat brains; peptides 10 μM
# T1 construct: that could be captured from rat brains; from tissue; host or cells: rat brain / spinal cord lysates (CaV2.2)
# Protocol: Referring now to FIG. 18. […] Peptides (10 μM each) were added for 30 min prior to addition of the CRMP-2-His protein. Representative blot from 12 separate experiments is shown. (FIG. 18.B) In vitro binding of L1-GST and Ct-dis-GST fusion proteins to CRMP-2 in the presence of scramble or CBD3 peptides (10 μM). The purification of the L1 and Ct-dis regions of CaV2.2 has been described by us previously. CRMP-2 bound to L1 and Ct-dis was probed with a CRMP-2 antibody. Representative blot from 4 separate experiments are shown. Similar results were obtained in experiments with spinal cord lysates (FIGS. 18.B and 18D).
# Immunoblotting. This was performed as described previously. Rat brain synaptosomes were pre-cleared by a 1-h incubation with 20 μl of a 50% slurry of protein A/G beads (Pierce). The cleared lysate was then incubated overnight with various primary antibodies or rabbit or mouse isotype-specific IgGs (Sigma) as controls. The antibody-captured complexes were recovered with fresh protein A-agarose (for rabbit polyclonal antibodies) or protein A/G-agarose (for mouse monoclonal antibodies) beads (20 μl of original bead slurry/sample) by incubation with lysate/antibody mixture at 4° C. for 2 h. The beads were then washed three times with lysis buffer. Prior to electrophoresis on SDS-polyacrylamide gels, protein samples were boiled in Laemmli sample buffer for 5 min. […]
# [4] = system: cortical layer V pyramidal neurons; experiment: Cortical slice recordings of evoked EPSCs; format: cell-based, CD1 mice; details: 10 μM
# T1 sequence (Q02294 whole entry): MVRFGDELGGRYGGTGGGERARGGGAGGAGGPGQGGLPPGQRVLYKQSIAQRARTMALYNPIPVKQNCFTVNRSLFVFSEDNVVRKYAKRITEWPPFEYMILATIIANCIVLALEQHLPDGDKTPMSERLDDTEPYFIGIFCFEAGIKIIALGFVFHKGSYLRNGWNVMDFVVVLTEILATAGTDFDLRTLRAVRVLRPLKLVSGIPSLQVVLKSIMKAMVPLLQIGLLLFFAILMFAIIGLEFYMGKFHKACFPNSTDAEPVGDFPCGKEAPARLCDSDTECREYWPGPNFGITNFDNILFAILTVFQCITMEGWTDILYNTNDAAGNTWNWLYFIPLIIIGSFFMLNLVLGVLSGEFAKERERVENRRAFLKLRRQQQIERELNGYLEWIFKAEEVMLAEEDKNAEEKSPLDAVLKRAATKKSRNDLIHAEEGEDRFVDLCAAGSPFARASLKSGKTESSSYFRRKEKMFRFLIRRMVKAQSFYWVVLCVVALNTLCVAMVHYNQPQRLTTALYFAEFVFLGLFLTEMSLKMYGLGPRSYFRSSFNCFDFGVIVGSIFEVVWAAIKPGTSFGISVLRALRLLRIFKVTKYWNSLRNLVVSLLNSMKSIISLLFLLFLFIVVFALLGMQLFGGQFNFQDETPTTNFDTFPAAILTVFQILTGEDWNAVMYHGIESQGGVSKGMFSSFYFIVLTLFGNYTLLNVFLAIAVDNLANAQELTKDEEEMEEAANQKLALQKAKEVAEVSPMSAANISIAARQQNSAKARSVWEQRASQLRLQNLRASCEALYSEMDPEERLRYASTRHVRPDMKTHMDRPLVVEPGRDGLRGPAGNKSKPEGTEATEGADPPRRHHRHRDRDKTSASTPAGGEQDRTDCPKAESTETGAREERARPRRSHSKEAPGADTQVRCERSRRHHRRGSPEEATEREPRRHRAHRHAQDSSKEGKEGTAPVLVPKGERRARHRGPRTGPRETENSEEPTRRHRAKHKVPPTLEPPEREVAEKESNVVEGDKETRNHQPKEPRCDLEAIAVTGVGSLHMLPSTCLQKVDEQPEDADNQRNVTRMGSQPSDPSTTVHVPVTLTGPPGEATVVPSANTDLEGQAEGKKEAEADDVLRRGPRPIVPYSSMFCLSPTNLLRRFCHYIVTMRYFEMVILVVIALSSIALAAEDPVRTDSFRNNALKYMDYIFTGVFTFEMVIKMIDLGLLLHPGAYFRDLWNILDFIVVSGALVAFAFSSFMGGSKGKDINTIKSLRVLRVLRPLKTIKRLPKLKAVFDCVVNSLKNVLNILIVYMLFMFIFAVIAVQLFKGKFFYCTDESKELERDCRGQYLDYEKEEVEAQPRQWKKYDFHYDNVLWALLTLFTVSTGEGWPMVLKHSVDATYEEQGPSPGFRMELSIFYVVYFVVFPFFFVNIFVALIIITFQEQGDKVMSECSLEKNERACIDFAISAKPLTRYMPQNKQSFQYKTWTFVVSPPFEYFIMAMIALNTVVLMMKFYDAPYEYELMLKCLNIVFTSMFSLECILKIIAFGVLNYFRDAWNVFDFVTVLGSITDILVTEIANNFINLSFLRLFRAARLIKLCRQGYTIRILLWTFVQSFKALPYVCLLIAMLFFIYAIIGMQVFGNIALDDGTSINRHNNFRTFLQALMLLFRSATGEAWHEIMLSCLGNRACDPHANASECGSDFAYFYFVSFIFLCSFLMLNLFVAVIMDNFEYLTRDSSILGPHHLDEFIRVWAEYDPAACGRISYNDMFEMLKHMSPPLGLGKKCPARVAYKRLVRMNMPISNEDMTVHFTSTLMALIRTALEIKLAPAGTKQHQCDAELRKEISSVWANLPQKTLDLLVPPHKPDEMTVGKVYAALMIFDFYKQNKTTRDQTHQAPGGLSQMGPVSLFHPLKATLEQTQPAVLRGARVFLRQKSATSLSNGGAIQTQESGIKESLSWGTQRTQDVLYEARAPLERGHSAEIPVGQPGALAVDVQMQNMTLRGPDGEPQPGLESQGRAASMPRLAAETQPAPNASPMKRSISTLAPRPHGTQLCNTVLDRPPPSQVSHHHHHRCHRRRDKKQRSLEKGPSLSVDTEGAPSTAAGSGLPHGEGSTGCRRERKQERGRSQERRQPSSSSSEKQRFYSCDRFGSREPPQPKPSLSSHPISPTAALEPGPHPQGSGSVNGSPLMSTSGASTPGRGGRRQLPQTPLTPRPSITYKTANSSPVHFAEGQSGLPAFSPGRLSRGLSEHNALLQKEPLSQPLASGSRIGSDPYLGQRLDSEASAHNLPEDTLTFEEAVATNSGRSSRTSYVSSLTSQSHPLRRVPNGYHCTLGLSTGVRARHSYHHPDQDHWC
# T1 sequence (P54287 whole entry partner): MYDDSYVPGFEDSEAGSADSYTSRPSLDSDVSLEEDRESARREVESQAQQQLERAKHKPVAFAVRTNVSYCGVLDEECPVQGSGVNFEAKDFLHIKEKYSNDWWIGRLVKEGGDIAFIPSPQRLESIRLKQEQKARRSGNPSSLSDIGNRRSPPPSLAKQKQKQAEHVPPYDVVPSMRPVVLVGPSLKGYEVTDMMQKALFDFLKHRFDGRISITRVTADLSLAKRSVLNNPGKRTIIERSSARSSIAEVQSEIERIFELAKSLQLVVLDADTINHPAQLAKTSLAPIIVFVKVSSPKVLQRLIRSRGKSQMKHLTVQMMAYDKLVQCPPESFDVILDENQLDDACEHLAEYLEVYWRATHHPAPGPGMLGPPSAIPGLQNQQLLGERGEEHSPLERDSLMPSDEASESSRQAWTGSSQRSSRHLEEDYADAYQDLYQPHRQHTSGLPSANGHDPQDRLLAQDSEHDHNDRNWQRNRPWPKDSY
molecule,measurement,setting,value
CC(C)C[C@H](NC(=O)CNC(=O)[C@H](CCCNC(=N)N)NC(=O)[C@@H]1CCCN1C(=O)[C@@H](NC(=O)CNC(=O)[C@H](CCCNC(=N)N)NC(=O)[C@H](CC(C)C)NC(=O)[C@H](CCC(=O)O)NC(=O)[C@H](C)NC(=O)[C@H](CC(C)C)NC(=O)[C@H](CCCNC(=N)N)NC(=O)[C@H](CO)NC(=O)[C@H](CCCNC(=N)N)NC(=O)[C@H](C)NC(=O)[C@H](CCCNC(=N)N)NC(=O)[C@H](CCCNC(=N)N)NC(=O)[C@H](CCCNC(=N)N)NC(=O)[C@H](CCC(N)=O)NC(=O)[C@H](CCCNC(=N)N)NC(=O)[C@H](CCCNC(=N)N)NC(=O)[C@H](CCCCN)NC(=O)[C@H](CCCCN)NC(=O)[C@H](CCCNC(=N)N)NC(=O)CNC(=O)[C@@H](N)Cc1ccc(O)cc1)C(C)C)C(=O)O [TAT-CBD3] (H-YGRKKRRQRRRARSRLAELRGVPRGL-OH; N-terminus and C-terminus assumed),accelerating rotarod performance,motor coordination,had no effect in the accelerating rotarod test
same,LDBT number of transitions between the light and dark box,"[1]; 1 mg/kg, compared to TAT-Scramble",increased
same,Light-Dark Box: Dark box latency to exit,[1]; 0.1 mg/kg i.p.,66.0 ± 17.3 s
same,Light-Dark Box: Light box entries,[1]; 0.1 mg/kg i.p.,10.6 ± 1.2
same,Light-Dark Box: Dark box latency to exit,[1]; 1 mg/kg i.p.,36.9 ± 5.8 s
same,Light-Dark Box: Light box entries,[1]; 1 mg/kg i.p.,13.5 ± 1.1
same,Light-Dark Box: Dark box latency to exit,[1]; 10 mg/kg i.p.,49.5 ± 9.6 s
same,Light-Dark Box: Light box entries,[1]; 10 mg/kg i.p.,11.5 ± 1.2
same,Elevated Plus Maze: Closed arm entries,[2]; 0.1 mg/kg i.p.,19.1 ± 1.4
same,Elevated Plus Maze: Closed arm latency to enter,[2]; 0.1 mg/kg i.p.,4.5 ± 2.2 s
same,Elevated Plus Maze: Closed arm latency to exit,[2]; 0.1 mg/kg i.p.,14.9 ± 2.9 s
same,Elevated Plus Maze: Open arm entries,[2]; 0.1 mg/kg i.p.,13.6 ± 1.6
same,Elevated Plus Maze: Open arm latency to enter,[2]; 0.1 mg/kg i.p.,10.3 ± 2.7 s
same,Elevated Plus Maze: Open arm latency to exit,[2]; 0.1 mg/kg i.p.,17.7 ± 2.5 s
same,Elevated Plus Maze: Closed arm entries,[2]; 1 mg/kg i.p.,26.4 ± 4.2
same,Elevated Plus Maze: Closed arm latency to enter,[2]; 1 mg/kg i.p.,2.4 ± 2.1 s
same,Elevated Plus Maze: Closed arm latency to exit,[2]; 1 mg/kg i.p.,11.1 ± 2.6 s
same,Elevated Plus Maze: Open arm entries,[2]; 1 mg/kg i.p.,19.7 ± 3.1
same,Elevated Plus Maze: Open arm latency to enter,[2]; 1 mg/kg i.p.,10.1 ± 2.9 s
same,Elevated Plus Maze: Open arm latency to exit,[2]; 1 mg/kg i.p.,16.4 ± 3.1 s
same,Elevated Plus Maze: Closed arm entries,[2]; 10 mg/kg i.p.,27.4 ± 7.0
same,Elevated Plus Maze: Closed arm latency to enter,[2]; 10 mg/kg i.p.,5.3 ± 2.2 s
same,Elevated Plus Maze: Closed arm latency to exit,[2]; 10 mg/kg i.p.,10.6 ± 3.5 s
same,Elevated Plus Maze: Open arm entries,[2]; 10 mg/kg i.p.,20.0 ± 6.1
same,Elevated Plus Maze: Open arm latency to enter,[2]; 10 mg/kg i.p.,4.6 ± 1.9 s
same,Elevated Plus Maze: Open arm latency to exit,[2]; 10 mg/kg i.p.,11.1 ± 2.1 s
same,EPM time in and entries into open/closed arms,"[2]; any dose, compared to TAT-Scramble","neither time spent in the open or closed arms, nor frequency of entries into the open nor closed arms were altered"
ARSRLAELRGVPRGL (CBD3),CRMP-2-CaV2.2 interaction (immunoprecipitation),[3],inhibited; also recorded: inhibits the binding between CRMP-2 and CaV2.2
same,paired-pulse ratio (PPR),[4],increased pair pulse ratios
